Measurements published in US20070231921A1, “Method and system for determining whether a drug will be effective on a patient with a disease” (priority 2006, published 2007).

Assays:
[1] = system: Non-Small-Cell Lung Cancer; assay: Response rate of Iressa in Japanese NSCLC patients, without and with filtering by the serum mass spectrometer test; format: in vivo, human; settings: Japanese population
Procedure: Continuing with FIG. 3, step 312, learning may be utilized in generating classifiers for a training set of spectra. In the case of sampling serum for detecting whether an anti-cancer drug will be effective on non-small-cell lung cancer, control groups of patients were utilized, including using three sets of patients whose cancer progressed following chemotherapy. Each of the patients was treated with Iressa and information, including survival times, of these patients was recorded. […] Each data set represents the cancer research center from which spectra and associated patient information was received.
TABLE III is a summary of the data set attributes used in a study to determine whether a classifier algorithm could be effective in determining whether a cancer patient would be responsive to Iressa. Data sets Italian 1, Italian 2, Japan 1, and Japan 2 were treated with Iressa following sample collection. Training and testing in the development phase was done crosswise from the Italian 1 sets and the two Japanese sets. The patient data included survival data, where the Italian set had very complete patient history together with treatment and cancer type, the Japanese sets only included prognostic information relating to the WHO definitions of clinical labels, including stable disease (SD), progressive disease (PD), and partial responders (PR) measured by CT imaging. […]

[2] = system: Non-Small-Cell Lung Cancer; settings: NSCLC patients in Asia, compared with Caucasian populations; cited from earlier work

## COc1cc2ncnc(Nc3ccc(F)c(Cl)c3)c2cc1OCCCN1CCOCC1 [Iressa, gefitinib]
[1]; after serum based mass spectrometer test filters non-responders from responders
  response rate of Iressa: 90%
[1]; before filtering non-responders from responders
  response rate of Iressa: 65%
[2]
  response rate: considerably higher
